Laboratory results from patent publication US20250303006A1, “BIOCOMPATIBLE ANTISEPTIC COMPOSITION CONTAINING 9-HYDROXYCALABAXANTHONE AND/OR RELATED XANTHONES” (UNIVERSITAT DE LES ILLES BALEARS, priority 2022, published 2025).

Legend:
P. gingivalis = P. gingivalis culture and proliferation assay (growth rate, live/dead ratio); type: cell-based, Porphyromonas gingivalis; conditions: 0.002% HCX, 10 h
Procedure: Bacterium P. gingivalis (ATCC 33277TM, Manassas, VA) was cultured in brain heart infusion (BHI) broth (Scharlab, Barcelona, Spain), supplemented with 0.5 g/l of L-cysteine hydrochloride (Thermo Fisher Scientific), 5.0 mg/I of hemin (Thermo Fisher Scientific), and 1.0 mg/I of vitamin K (Thermo Fisher Scientific) in anaerobic conditions (10% H2, 10% CO2, and 80% N2) achieved with an anaerobiosis sachet and jar (Oxoid Anaerogen™, Thermo Fisher Scientific) at 37° C. for 24-72 h.
Bacteria P. gingivalis were cultured from existing frozen bacteria in BHI broth. After one night of incubation, 1 ml of bacterial suspension (˜3×10^8 bacteria/ml) was treated with different concentrations of HCX (0.00002, 0.0002, 0.002%) for 10 hours in anaerobic conditions (10% H2, 10% CO2, and 80% N2) at 37° C. At regular intervals (0 h and 10 h), optical density (OD) was measured at 600 nm to determine bacterial proliferation (PowerWave Ht, Biotekinstruments, Winooski, VT). […] The proportion of living bacteria/dead bacteria was determined using the LIVE/DEAD BacLight bacterial viability kit (Invitrogen, Thermo Fisher Scientific, Waltham, MA, USA), following the manufacturer's instructions.
Two different concentrations of HA formulated with HCX (0.025 and 0.05%) were used in the present study. […]

S. mutans = S. mutans culture and proliferation assay; type: cell-based, Streptococcus mutans; conditions: 5 h
Procedure: (§1) S. mutans CECT 479 (obtained from The Spanish Type Culture Collection (CECT), University of Valencia) was grown from frozen stocks in BHI broth (Scharlab), at 37° C. under aerobic conditions in an orbital shaker (180 rpm). After overnight incubation, 1 mL of bacterial suspensions were incubated with different concentrations of CHX (0.01, 0.005, 0.003, 0.001, 0.0001%) and HCX (0.003, 0.002, 0.001, 0.0002, 0.00002%) for 5 hours at 37° C. under aerobic conditions in an orbital shaker (180 rpm). Bacterial suspension without treatment served as negative control (C−). The optical density (OD) was measured at 600 nm at 0 h and 5 h to determine bacterial proliferation (PowerWave Ht). The bacterial growth rate (μ) was calculated during the exponential growth phase following the equation ln ODt−ln OD0=μ×(t−t0) (n=3). The live/Dead ratio of bacteria was determined using the LIVE/DEAD BacLight bacterial viability kit (Invitrogen), following the manufacturer's instructions. The assays were carried out in triplicate, with two replicates at each condition (n=3).
The bacteria S. mutans was cultured and treated with different commercial periodontal gels and HA formulated with 0.1%, 0.05%, and 0.01% HCX and aMG for 24 h. The gels were tested at a concentration of 5% (v/v), and the experiment was run like in experiment 8 of section 8.1.

P. aeruginosa = P. aeruginosa culture and proliferation assay; type: cell-based, Pseudomonas aeruginosa; conditions: 0.003% HCX, 3 h
Procedure: P. aeruginosa ATCC 27853 was grown from frozen stocks in LB broth (Scharlab), at 37° C. under aerobic conditions in an orbital shaker (180 rpm). After overnight incubation, 1 mL of bacterial suspensions were incubated with different concentrations of CHX (0.01, 0.005, 0.003, 0.001, 0.0001%) and HCX (0.003, 0.002, 0.001, 0.0002, 0.00002%) for 3 hours at 37° C. under aerobic conditions in an orbital shaker (180 rpm). Bacterial suspension without treatment served as negative control (C−). The optical density (OD) was measured at 600 nm at 0 h and 3 h to determine bacterial proliferation (PowerWave Ht). The bacterial growth rate (μ) was calculated during the exponential growth phase following the equation ln ODt−ln OD0=μ×(t−t0) (n=3).

C. albicans = test: Candida albicans culture and proliferation assay; type: cell-based; conditions: 0.003% HCX, 24 h
Procedure: C. albicans was grown from frozen stocks in LB broth (Scharlab), at 37° C. under aerobic conditions in an orbital shaker (180 rpm). […] Fungal suspension without treatment served as negative control (C−). […] The fungal growth rate (μ) was calculated during the exponential growth phase following the equation ln ODt−ln OD0=μ×(t−t0) (n=3).

S. pyogenes = S. pyogenes culture and proliferation assay; type: cell-based, Streptococcus pyogenes; conditions: 0.0002% HCX, 24 h
Procedure: as §1, with “S. pyogenes” for “S. mutans CECT 479 (obtained from The Spanish Type Culture Collection (CECT), University of Valencia)”, “in Tryptic Soy Broth (TSB)” for “in BHI broth”, “for 24” for “for 5”, “and 24” for “and 5”, “OD0=μ×(t−t0) (n=4).” for “OD0=μ×(t−t0) (n=3).”, “in triplicate.” for “in triplicate, with two replicates at each condition (n=3).”

COc1c(O)cc2oc3cc4c(c(O)c3c(=O)c2c1CC=C(C)C)C=CC(C)(C)O4 [HCX, 9-hydroxycalabaxanthone]
bacteria eliminated (P. gingivalis): 100%
bacteria eliminated (S. mutans; 0.0002% HCX): 70%
bacteria eliminated (S. mutans; 0.001% HCX): 90%
bacteria eliminated (P. aeruginosa): 32%
fungal eliminated (C. albicans): 22%
bacteria eliminated (S. pyogenes): 100%
